Several values for one entry are separate records, joined by “and”; a condition that tells them apart may be missing. Identical values can stand only once. Toxic doses and inconclusive results are not listed. How the source made its calls: active means survival T/C of 150% or more; inactive means T/C below 125% in these data.
System: CD2F1 mice, L1210 leukemia ip, survival T/C
Test: NCI In Vivo Anticancer Drug Screen. Data for tumor model L1210 Leukemia (intraperitoneal) in CD2F1 (CDF1) mice
Conditions: higher = longer survival
Summary of the method: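 Ratio T/C, where T is the treated-group value and C the vehicle-dosed control value, from mice implanted with a transplantable tumor.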

[1] = endpoint: mean survival time, dose: 100.0 mg/kg/injection, schedule: Q01DX009 (ip), vehicle: saline with Tween-80
[2] = endpoint: mean survival time, dose: 100.0 mg/kg/injection, schedule: Q04DX003 (ip), vehicle: saline with Tween-80
[3] = endpoint: mean survival time, dose: 200.0 mg/kg/injection, schedule: Q01DX009 (ip), vehicle: saline with Tween-80
[4] = endpoint: mean survival time, dose: 400.0 mg/kg/injection, schedule: Q04DX003 (ip), vehicle: saline with Tween-80
[5] = endpoint: mean survival time, dose: 25.0 mg/kg/injection, schedule: Q01DX009 (ip), vehicle: saline with Tween-80
[6] = endpoint: mean survival time, dose: 50.0 mg/kg/injection, schedule: Q01DX009 (ip), vehicle: saline with Tween-80
[7] = endpoint: mean survival time, dose: 200.0 mg/kg/injection, schedule: Q04DX003 (ip), vehicle: saline with Tween-80
[8] = endpoint: mean survival time, dose: 50.0 mg/kg/injection, schedule: Q04DX003 (ip), vehicle: saline with Tween-80
[9] = endpoint: mean survival time, dose: 12.5 mg/kg/injection, schedule: Q01DX009 (ip), vehicle: saline
[10] = endpoint: mean survival time, dose: 25.0 mg/kg/injection, schedule: Q01DX009 (ip), vehicle: saline
[11] = endpoint: mean survival time, dose: 50.0 mg/kg/injection, schedule: Q01DX009 (ip), vehicle: saline

Measured: T/C

O=c1nc(N2CCCCCCC2)ccn1C1OC(CO)C(O)C1O (centres undefined)
inactive: endpoint: median survival time, dose: 12.5 mg/kg/injection, schedule: Q01DX005 (ip), vehicle: water 98 % of control | endpoint: median survival time, dose: 25.0 mg/kg/injection, schedule: Q01DX005 (ip), vehicle: water 98 % of control | endpoint: median survival time, dose: 50.0 mg/kg/injection, schedule: Q01DX005 (ip), vehicle: water 118 % of control | endpoint: median survival time, dose: 100.0 mg/kg/injection, schedule: Q01DX005 (ip), vehicle: water 112 % of control | endpoint: median survival time, dose: 200.0 mg/kg/injection, schedule: Q01DX005 (ip), vehicle: water 104 % of control

O=Cc1ccc(N=Nc2c(S(=O)(=O)O)cc3cc(S(=O)(=O)O)cc(O)c3c2O)cc1
inactive: [1] 100 % of control | [2] 96 % of control | [3] 88 % of control | [4] 88 % of control

CC(=O)Nc1ccc(S(=O)(=O)CO)cc1
inactive: endpoint: mean survival time, dose: 12.5 mg/kg/injection, schedule: Q01DX009 (ip), vehicle: saline with Tween-80 97 % of control | [5] 92 % of control and 97 % of control | [6] 102 % of control and 108 % of control | [1] 101 % of control and 108 % of control | [3] 101 % of control and 103 % of control | endpoint: mean survival time, dose: 400.0 mg/kg/injection, schedule: Q01DX009 (ip), vehicle: saline with Tween-80 101 % of control and 109 % of control

CSc1nc(NC2OCC(O)C(O)C2O)cc(=O)[nH]1 (centres undefined)
inactive: endpoint: median survival time, dose: 12.5 mg/kg/injection, schedule: Q01DX005 (ip), vehicle: saline 102 % of control | endpoint: median survival time, dose: 25.0 mg/kg/injection, schedule: Q01DX005 (ip), vehicle: saline 98 % of control | endpoint: median survival time, dose: 50.0 mg/kg/injection, schedule: Q01DX005 (ip), vehicle: saline 100 % of control | endpoint: median survival time, dose: 100.0 mg/kg/injection, schedule: Q01DX005 (ip), vehicle: saline 98 % of control | endpoint: median survival time, dose: 200.0 mg/kg/injection, schedule: Q01DX005 (ip), vehicle: saline 100 % of control

C=C1C(=O)OC2/C=C(\C)CC/C=C(/C)CC(OC(=O)/C(=C/CO)CO)C12 (centres undefined)
inactive: endpoint: mean survival time, dose: 10.0 mg/kg/injection, schedule: Q01DX009 (ip), vehicle: Klucel (hydroxypropylcellulose) (HPC) 96 % of control | endpoint: mean survival time, dose: 20.0 mg/kg/injection, schedule: Q01DX009 (ip), vehicle: Klucel (hydroxypropylcellulose) (HPC) 100 % of control | endpoint: mean survival time, dose: 40.0 mg/kg/injection, schedule: Q01DX009 (ip), vehicle: Klucel (hydroxypropylcellulose) (HPC) 95 % of control

O=C(c1ccccc1)C(O)(Cc1ccccc1)c1ccccc1 (centres undefined)
inactive: [2] 96 % of control | [7] 102 % of control | [4] 97 % of control

c1cc2c3c(c1)nc(CCc1nc4cccc5c4n1CCC5)n3CCC2
inactive: [5] 100 % of control | [6] 91 % of control | [1] 92 % of control

COc1cc(NC(C)CCCN)c2ncccc2c1 (centres undefined)
inactive: endpoint: mean survival time, dose: 12.5 mg/kg/injection, schedule: Q01DX009 (ip), vehicle: saline sonified 102 % of control | endpoint: mean survival time, dose: 12.5 mg/kg/injection, schedule: Q04DX003 (ip), vehicle: saline with Tween-80 104 % of control | endpoint: mean survival time, dose: 25.0 mg/kg/injection, schedule: Q01DX009 (ip), vehicle: saline sonified 97 % of control | endpoint: mean survival time, dose: 25.0 mg/kg/injection, schedule: Q04DX003 (ip), vehicle: saline with Tween-80 93 % of control | endpoint: mean survival time, dose: 50.0 mg/kg/injection, schedule: Q01DX009 (ip), vehicle: saline sonified 102 % of control | [8] 101 % of control

O=C(NO)c1ccc(O)c(O)c1O
inactive: endpoint: mean survival time, dose: 25.0 mg/kg/injection, schedule: Q01DX009 (ip), vehicle: distilled water + Tween-80 110 % of control | endpoint: mean survival time, dose: 50.0 mg/kg/injection, schedule: Q01DX009 (ip), vehicle: distilled water + Tween-80 108 % of control | endpoint: mean survival time, dose: 100.0 mg/kg/injection, schedule: Q01DX009 (ip), vehicle: distilled water + Tween-80 116 % of control

CCOC(=O)C(N)CSC(=O)NC (centres undefined)
inactive: [9] 95 % of control | [10] 103 % of control and 107 % of control | [11] 116 % of control and 97 % of control | endpoint: mean survival time, dose: 100.0 mg/kg/injection, schedule: Q01DX009 (ip), vehicle: saline 123 % of control and 105 % of control | endpoint: mean survival time, dose: 200.0 mg/kg/injection, schedule: Q01DX009 (ip), vehicle: saline 116 % of control and 111 % of control | endpoint: mean survival time, dose: 800.0 mg/kg/injection, schedule: Q01DX009 (ip), vehicle: saline 94 % of control

CS(C)=O.O=C([O-])CC(=O)[O-].[NH-]CC(O)CN(Cc1ccccc1)CC(O)CN.[Pt+4] (centres undefined)
inactive: endpoint: median survival time, dose: 10.0 mg/kg/injection, schedule: Q04DX003 (ip), vehicle: water 107 % of control | endpoint: median survival time, dose: 20.0 mg/kg/injection, schedule: Q04DX003 (ip), vehicle: water 104 % of control | endpoint: median survival time, dose: 40.0 mg/kg/injection, schedule: Q04DX003 (ip), vehicle: water 104 % of control | endpoint: median survival time, dose: 50.0 mg/kg/injection, schedule: Q04DX003 (ip), vehicle: water 100 % of control | endpoint: median survival time, dose: 80.0 mg/kg/injection, schedule: Q04DX003 (ip), vehicle: water 108 % of control | endpoint: median survival time, dose: 100.0 mg/kg/injection, schedule: Q04DX003 (ip), vehicle: water 104 % of control | endpoint: median survival time, dose: 200.0 mg/kg/injection, schedule: Q04DX003 (ip), vehicle: water 117 % of control and 110 % of control | endpoint: median survival time, dose: 400.0 mg/kg/injection, schedule: Q04DX003 (ip), vehicle: water 114 % of control

Cc1ccc2[nH]c(-c3ccccc3)c(-c3ccccc3)c2c1
inactive: [2] 102 % of control | [7] 94 % of control | [4] 96 % of control

O=c1cc(Nc2ccc(Br)cc2)[nH]c(=O)[nH]1
inactive: endpoint: mean survival time, dose: 100.0 mg/kg/injection, schedule: Q01DX001 (ip), vehicle: other 92 % of control | endpoint: mean survival time, dose: 200.0 mg/kg/injection, schedule: Q01DX001 (ip), vehicle: other 92 % of control

CNNC(=O)OC
inactive: endpoint: mean survival time, dose: 25.0 mg/kg/injection, schedule: Q04DX002 (ip), vehicle: saline 95 % of control | endpoint: mean survival time, dose: 50.0 mg/kg/injection, schedule: Q04DX002 (ip), vehicle: saline 98 % of control | endpoint: mean survival time, dose: 100.0 mg/kg/injection, schedule: Q04DX002 (ip), vehicle: saline 121 % of control and 109 % of control

COC(=O)c1c2ccccc2[n+](C)c2ccccc12
inactive: [9] 95 % of control | [10] 95 % of control | [11] 100 % of control | endpoint: mean survival time, dose: 100.0 mg/kg/injection, schedule: Q01DX001 (ip), vehicle: saline 91 % of control | endpoint: mean survival time, dose: 200.0 mg/kg/injection, schedule: Q01DX001 (ip), vehicle: saline 96 % of control

CN(C)S(=O)(=O)Oc1ccccc1N
inactive: [2] 99 % of control | [7] 87 % of control | [4] 94 % of control

O=C(c1ccccc1)C1OC1c1ccc(Cl)cc1 (centres undefined)
inactive: [8] 96 % of control | [2] 102 % of control | [7] 106 % of control

Oc1cc2c(cc1O)-c1[nH]ncc1CC2
inactive: endpoint: mean survival time, dose: 100.0 mg/kg/injection, schedule: Q04DX002 (ip), vehicle: saline with Tween-80 115 % of control | endpoint: mean survival time, dose: 200.0 mg/kg/injection, schedule: Q04DX002 (ip), vehicle: saline with Tween-80 103 % of control | endpoint: mean survival time, dose: 400.0 mg/kg/injection, schedule: Q04DX002 (ip), vehicle: saline with Tween-80 98 % of control

Cn1c(=O)c2c(nc(N3CCOCC3)n2CCCNCC(O)c2ccc(O)c(O)c2)n(C)c1=O (centres undefined)
inactive: endpoint: mean survival time, dose: 12.5 mg/kg/injection, schedule: Q01DX005 (ip), vehicle: water 102 % of control | endpoint: mean survival time, dose: 25.0 mg/kg/injection, schedule: Q01DX005 (ip), vehicle: water 96 % of control | endpoint: mean survival time, dose: 50.0 mg/kg/injection, schedule: Q01DX005 (ip), vehicle: water 97 % of control | endpoint: mean survival time, dose: 100.0 mg/kg/injection, schedule: Q01DX005 (ip), vehicle: water 96 % of control | endpoint: mean survival time, dose: 200.0 mg/kg/injection, schedule: Q01DX005 (ip), vehicle: water 92 % of control

CC1CC(C)(C)[N+](C)=C(CCc2ccccc2)O1 (centres undefined)
inactive: endpoint: mean survival time, dose: 100.0 mg/kg/injection, schedule: Q01DX001 (ip), vehicle: saline with Tween-80 93 % of control

OCC#CCO
inactive: endpoint: mean survival time, dose: 12.0 mg/kg/injection, schedule: Q01DX009 (ip), vehicle: saline 94 % of control | [10] 93 % of control | [11] 104 % of control

Cc1ccc(S(=O)(=O)CC(=O)N2CCOCC2)cc1
inactive: endpoint: mean survival time, dose: 100.0 mg/kg/injection, schedule: Q04DX003 (ip), vehicle: saline 102 % of control | endpoint: mean survival time, dose: 200.0 mg/kg/injection, schedule: Q04DX003 (ip), vehicle: saline 96 % of control | endpoint: mean survival time, dose: 400.0 mg/kg/injection, schedule: Q04DX003 (ip), vehicle: saline 98 % of control

CC(=O)Nc1cccc(Oc2ccc([N+](=O)[O-])cc2)c1
inactive: endpoint: mean survival time, dose: 100.0 mg/kg/injection, schedule: Q04DX002 (ip), vehicle: Klucel (hydroxypropylcellulose) (HPC) 98 % of control | endpoint: mean survival time, dose: 200.0 mg/kg/injection, schedule: Q04DX002 (ip), vehicle: Klucel (hydroxypropylcellulose) (HPC) 103 % of control | endpoint: mean survival time, dose: 400.0 mg/kg/injection, schedule: Q04DX002 (ip), vehicle: Klucel (hydroxypropylcellulose) (HPC) 98 % of control
